≈ marks a conversion by molar mass, not a printed value. Calls of active or inactive are those of the source. No cut-off for these calls is given here. Where only a bound is given, the exact number is not on record here.

From ChEMBL document CHEMBL1759846, “Identification of potent, soluble, and orally active TRPV1 antagonists” (Bioorg Med Chem Lett, 2011) come the findings set out here.

Data set [1] has as its target Transient receptor potential cation channel subfamily V member 1 (Homo sapiens, UniProt Q8NER1). As to the kind of experiment: Antagonist activity at human TRPV1 expressed in CHO-K1 cells assessed as inhibition of capsaicin-induced intracellular Ca2+ influx by FLIPR assay. The data set is classed as functional, cell-based.
The nature of data set [2]: Aqueous solubility of the compound in 0.05 M phosphate buffer at pH 7.4 by shake-flask method. Type of data set: physicochemical.
A short description of data set [3]: Octanol-water partition coefficient, log D of the compound at pH 7.4 by RP-HPLC analysis. The data set is classed as physicochemical.
Data set [4] in a line: Intrinsic clearance in human liver microsomes. Type of data set: ADME, Microsome.
Data set [5] in a line: Intrinsic clearance in rat liver microsomes. Type of data set: ADME, Microsome.
A further data set has as its system Hepatocyte. As to the kind of experiment: Intrinsic clearance in rat hepatocytes. The data set is classed as ADME, cell-based, Liver.
Data set [6] can be described thus: Plasma protein binding in human. The data set is classed as ADME, cell-free. Conditions: read-out: PPB (converted).
Data set [7] in a line: Plasma protein binding in Wistar rat. Type of data set: ADME, cell-free. The conditions noted are these: read-out: PPB (converted).
A short description of data set [8]: Clearance in Wistar rat at 10 mg/kg, po and 2 mg/kg, iv. The conditions noted are these: in vivo. Type of data set: ADME, organism-based.
Data set [9] can be described thus: Volume of distribution at steady state in Wistar rat at 10 mg/kg, po and 2 mg/kg, iv. Type of data set: ADME, organism-based. The conditions noted are these: in vivo, read-out: Vdss.
Data set [10] in a line: Half life in Wistar rat plasma at 10 mg/kg, po and 2 mg/kg, iv. The data set is classed as ADME, organism-based.
A short description of data set [11]: Cmax in Wistar rat at 10 mg/kg, po. The data set is classed as ADME, organism-based. Also noted: dose 10 mg/kg, route oral. Conditions: in vivo.
Data set [12] is described as follows: Tmax in Wistar rat at 10 mg/kg, po. The data set is classed as ADME, organism-based. On the set-up: dose 10 mg/kg, route oral. The conditions noted are these: in vivo.
A short description of data set [13]: Oral bioavailability in Wistar rat at 10 mg/kg. The data set is classed as ADME, organism-based. The conditions noted are these: in vivo.
For data set [14], the system named is Rattus norvegicus. As to the kind of experiment: Antiinflammatory activity against capsaicin-induced thermal hyperalgesia in rat assessed as paw withdrawal latency at 3 to 30 umol/kg, po administered 2 hrs before capsaicin challenge measured after 15 mins. The data set is classed as functional, organism-based.
Data set [15] has as its system Rattus norvegicus. In words: Antiinflammatory activity against capsaicin-induced thermal hyperalgesia in po dosed rat assessed as paw withdrawal latency administered 2 hrs before capsaicin challenge measured after 15 mins. Type of data set: functional.

Chain of Transient receptor potential cation channel subfamily V member 1 (Q8NER1 whole entry): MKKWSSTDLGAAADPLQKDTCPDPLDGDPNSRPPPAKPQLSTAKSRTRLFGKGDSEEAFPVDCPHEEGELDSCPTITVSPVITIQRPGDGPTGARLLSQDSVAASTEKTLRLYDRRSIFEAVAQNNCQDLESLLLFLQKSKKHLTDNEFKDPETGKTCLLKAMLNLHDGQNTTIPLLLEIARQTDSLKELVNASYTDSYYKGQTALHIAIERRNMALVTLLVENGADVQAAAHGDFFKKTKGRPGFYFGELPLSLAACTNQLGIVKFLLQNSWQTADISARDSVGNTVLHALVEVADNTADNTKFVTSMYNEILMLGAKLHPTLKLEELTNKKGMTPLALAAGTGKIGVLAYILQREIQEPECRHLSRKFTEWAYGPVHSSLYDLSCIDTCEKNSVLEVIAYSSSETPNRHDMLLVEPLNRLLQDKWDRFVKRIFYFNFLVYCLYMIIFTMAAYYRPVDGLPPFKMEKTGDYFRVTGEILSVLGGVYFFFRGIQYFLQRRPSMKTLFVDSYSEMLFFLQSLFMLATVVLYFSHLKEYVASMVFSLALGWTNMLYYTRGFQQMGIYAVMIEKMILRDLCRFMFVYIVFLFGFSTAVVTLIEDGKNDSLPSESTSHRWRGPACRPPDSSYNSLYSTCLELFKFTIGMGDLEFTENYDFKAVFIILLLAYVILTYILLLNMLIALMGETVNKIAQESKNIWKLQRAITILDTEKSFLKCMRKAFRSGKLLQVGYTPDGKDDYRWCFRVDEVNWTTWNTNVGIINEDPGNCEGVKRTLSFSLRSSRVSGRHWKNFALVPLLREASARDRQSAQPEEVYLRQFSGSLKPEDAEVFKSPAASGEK

Consider `COCCNCc1c(C(=O)N[C@@H]2CCC[C@H](O)C2)noc1-c1ccc(C(F)(F)F)cc1`, for which the IC50 in [1] was 126 nM. In addition, the thermodynamic solubility in data set [2] was 80 µg/mL (≈ 181 µM). Also, in [3], the log distribution coefficient (logD) came out at 3.7.
As for `CCN(Cc1c(C(=O)N[C@@H]2CCC[C@H](O)C2)noc1-c1ccc(C(F)(F)F)cc1)C(C)C`, in data set [1], the IC50 was 25.1 nM. In [2], this compound had a thermodynamic solubility of 85 µg/mL (≈ 187 µM). This compound registered a logD in data set [3] of 4.1.
For `O=C(N[C@@H]1CCC[C@H](O)C1)c1noc(-c2ccc(C(F)(F)F)cc2)c1CNC1CCC1` the same measures were 15.8 nM, 26 µg/mL (≈ 59.4 µM) and 4.3.
With `CC(C)(CO)CNCc1c(C(=O)N[C@@H]2CCC[C@H](O)C2)noc1-c1ccc(C(F)(F)F)cc1`, the concentration for half-maximal inhibition (IC50) in [1] is 3.16 nM. In data set [2], this compound gave a thermodynamic solubility of 89 µg/mL (≈ 190 µM). The results for the microsomal CLint in data set [4] and in data set [5] were 12 µL/min/mg and 93 µL/min/mg, respectively. For the same compound, the CL in the data set with Hepatocyte came to 10 µL/min. In addition, the fraction unbound in data set [6] was 0.361; in [7], 0.168. Also, the pH-dependent lipophilicity (logD) in data set [3] is 3.5.
Turning to `CC(C)[C@@H](CO)NCc1c(C(=O)N[C@@H]2CCC[C@H](O)C2)noc1-c1ccc(C(F)(F)F)cc1`, the IC50 in data set [1] was 10 nM. Also, in data set [2], the solubility (thermodynamic) was found to be 81 µg/mL (≈ 173 µM). Besides, the logD in data set [3] came to 4.1.
`O=C(N[C@@H]1CCC[C@H](O)C1)c1noc(-c2ccc(C(F)(F)F)cc2)c1CNCC1CC1` came in with a thermodynamic solubility in [2] of 77 µg/mL (≈ 176 µM). The intrinsic clearance (microsomal CLint) in [4] turned out to be 48 µL/min/mg; in [5], 55 µL/min/mg. Further, the logD in [3] was 3.5.
For `O=C(N[C@@H]1CCC[C@H](O)C1)c1noc(-c2ccc(C(F)(F)F)cc2)c1CNCC(O)C(F)(F)F` (some centres undefined), the concentration for half-maximal inhibition (IC50) in data set [1] was 10 nM. The solubility (thermodynamic) in data set [2] stood at 87 µg/mL (≈ 176 µM). Further, in [3], the logD was determined as 4.7.
As to `CN(Cc1c(C(=O)N[C@@H]2CCC[C@H](O)C2)noc1-c1ccc(C(F)(F)F)cc1)[C@@H]1CCOC1`, in data set [1], the IC50 was 12.6 nM. This compound had a solubility (thermodynamic) in data set [2] of 6.6 µg/mL (≈ 14.1 µM). This compound came in with a pH-dependent lipophilicity (logD) in [3] of 4.5.
The matching figures for `CN(Cc1c(C(=O)N[C@@H]2CCC[C@H](O)C2)noc1-c1ccc(C(F)(F)F)cc1)C1CCOCC1`: 79.4 nM, 82 µg/mL (≈ 170 µM) and 3.7.
On to `CC(C)[C@H](CO)NCc1c(C(=O)N[C@@H]2CCC[C@H](O)C2)noc1-c1ccc(C(F)(F)F)cc1`, for which the 50% inhibitory concentration (IC50) in [1] is 2.51 nM. The thermodynamic solubility in data set [2] was 79 µg/mL (≈ 168 µM). Further, the microsomal CLint in data set [4] came out at 12 µL/min/mg; in data set [5], 41 µL/min/mg. In addition, the fraction unbound is 0.256 in data set [6] and 0.116 in [7]. In data set [8], this compound had a clearance of 13.5 mL/min/kg. In addition, the Vd in data set [9] was 3.5 L/kg. Besides, the half-life in data set [10] is 4.3 h. In addition, the peak concentration (Cmax) in data set [11] was 230 nM. Also, the time to peak (Tmax) in data set [12] is 1.5 h. This compound registered a bioavailability in data set [13] of 4%. This compound yielded a log distribution coefficient (logD) in [3] of 4.2.
With `CC(C)N(C)Cc1c(C(=O)N[C@@H]2CCC[C@H](O)C2)noc1-c1ccc(C(F)(F)F)cc1`, in data set [1], the IC50 was 25.1 nM. Also, in data set [2], the thermodynamic solubility was determined as 80 µg/mL (≈ 182 µM). The compound further yielded a log distribution coefficient (logD) in data set [3] of 4.
As for `O=C(N[C@@H]1CCC[C@H](O)C1)c1noc(-c2ccc(C(F)(F)F)cc2)c1CNC1CC1`, the IC50 in [1] is 3.16 nM. Further, the thermodynamic solubility in data set [2] was determined as 21 µg/mL (≈ 49.6 µM). The microsomal CLint in [4] is 17 µL/min/mg; in data set [5], < 12 µL/min/mg. Further, in the data set with Hepatocyte, the CL is < 6 µL/min. The fraction unbound in [6] is 0.118; in [7], 0.064. For the same compound, the logD in [3] was determined as 4.5.
With `CN(Cc1c(C(=O)N[C@@H]2CCC[C@H](O)C2)noc1-c1ccc(C(F)(F)F)cc1)C[C@@H]1CCCO1`, the 50% inhibitory concentration (IC50) in [1] is 5.01 nM. This compound had a thermodynamic solubility in data set [2] of 31 µg/mL (≈ 64.4 µM). The compound also registered a logD in data set [3] of 3.6.
For `CN(CCS(C)(=O)=O)Cc1c(C(=O)N[C@@H]2CCC[C@H](O)C2)noc1-c1ccc(C(F)(F)F)cc1` the same measures were 1260 nM, 26 µg/mL (≈ 51.6 µM) and 3.6.
On to `O=C(N[C@@H]1CCC[C@H](O)C1)c1noc(-c2ccc(C(F)(F)F)cc2)c1CNCC1CCC1`, for which the IC50 in data set [1] is 1.26 nM. In addition, the intrinsic metabolic clearance (microsomal CLint) in data set [4] was 21 µL/min/mg; in data set [5] it was 144 µL/min/mg. In [3], this compound returned a pH-dependent lipophilicity (logD) of 4.4.
`CC(C)CNCc1c(C(=O)N[C@@H]2CCC[C@H](O)C2)noc1-c1ccc(C(F)(F)F)cc1`: the IC50 in data set [1] was 1 nM. Besides, the thermodynamic solubility in [2] came to 78 µg/mL (≈ 177 µM). Also, the intrinsic metabolic clearance (microsomal CLint) in [4] came out at 12 µL/min/mg; in data set [5] it was 107 µL/min/mg. The same compound showed a CL with Hepatocyte of 12 µL/min. The figures for the fraction unbound in data set [6] and in [7] were 0.177 and 0.242, respectively. The compound further showed a clearance in data set [8] of 69 mL/min/kg. Moreover, the Vd in data set [9] is 7.6 L/kg. This compound also gave a half-life in data set [10] of 4 h. In addition, the highest concentration (Cmax) in [11] came to 420 nM. For the same compound, the Tmax in [12] is 2 h. In data set [13], the bioavailability worked out at 33%. In the data set with Rattus norvegicus [14], the outcome was Active. Further, in the data set with Rattus norvegicus [15], the MED amounted to 30 µmol/kg. Also, in [3], the log distribution coefficient (logD) is 4.3.
On to `COCCN(C)Cc1c(C(=O)N[C@@H]2CCC[C@H](O)C2)noc1-c1ccc(C(F)(F)F)cc1`, for which the IC50 in data set [1] was 7.94 nM. In data set [2], this compound yielded a solubility (thermodynamic) of 83 µg/mL (≈ 182 µM). For the same compound, the pH-dependent lipophilicity (logD) in data set [3] stood at 4.
The matching figures for `NC(=O)C1CCN(Cc2c(C(=O)N[C@@H]3CCC[C@H](O)C3)noc2-c2ccc(C(F)(F)F)cc2)CC1`: 3160 nM, 30 µg/mL (≈ 60.7 µM) and 3.6.
With `CC(C)NCc1c(C(=O)N[C@@H]2CCC[C@H](O)C2)noc1-c1ccc(C(F)(F)F)cc1`, in data set [2], the solubility (thermodynamic) was 82 µg/mL (≈ 193 µM). Besides, the microsomal CLint in data set [4] and in data set [5] was < 12 µL/min/mg throughout. In addition, the CL with Hepatocyte is < 6 µL/min. Moreover, the results for the fraction unbound in data set [6] and in data set [7] were 0.25 and 0.271, respectively. The clearance in data set [8] worked out at 12.5 mL/min/kg. Further, the Vd in [9] worked out at 5.9 L/kg. The compound further showed a half-life in [10] of 7.9 h. For the same compound, the highest level in [11] (Cmax) was 720 nM. Also, in data set [12], the time to peak (Tmax) was determined as 2 h. Besides, the bioavailability in [13] turned out to be 20%. Moreover, the logD in data set [3] was found to be 3.
Regarding `C[C@H](NCc1c(C(=O)N[C@@H]2CCC[C@H](O)C2)noc1-c1ccc(C(F)(F)F)cc1)C(F)(F)F`, the half-maximal inhibitory concentration (IC50) in data set [1] is 0.158 nM. The compound also yielded a solubility (thermodynamic) in [2] of 3.5 µg/mL (≈ 7.3 µM). For the same compound, the intrinsic metabolic clearance (microsomal CLint) is 66 µL/min/mg in data set [4] and 49 µL/min/mg in [5]. Besides, the fraction unbound is 0.048 in [6] and 0.037 in data set [7]. In [3], the logD turned out to be 5.6.
